Where “and” joins values, the source holds several entries; their conditions need not be identical. Equal values may be shown once.
Columns and labels:
advanced malignancies = assay: anti-tumour activity, RECIST v. 1.0; format: in vivo, human; conditions: parts 1 and 2; extending to 30 cycles
[1] = test system: patients with advanced malignancies; assay: safety and tolerability: adverse events; format: in vivo, human; conditions: for Diarrhoea / Fatigue / Nausea / Neutropenia / Vomiting / Abdominal pain / Alopecia / Anaemia / Decreased appetite / Dehydration / Dizziness / Febrile neutropenia / Headache / Hyperbilirubinemia / Hyperglycaemia / Hyperuricemia / Hypotension / Increased ALT / Increased AST / Increased alkaline phosphatase / Leukopenia / Pancytopenia / Thrombocytopenia / Bacterial sepsis: treatment-related
[2] = test system: Rb phosphorylation and other CDK targets in keratinocytes; assay: CDK targets in skin biopsies; format: in vivo, human
CDK12 = conditions: ref Johnson et al, 2016; cited from earlier work
[3] = 2-h infusion at RP2D 50 mg m^−2, fifteen patients, all grades
[4] = 8- and 24-h infusion n=26, all grades
[5] = 8- and 24-h infusion n=26, grade 3–4
[6] = 8-h infusions, 16 patients, all grades
[7] = 8-h infusions, 16 patients, grade 3 or 4
[8] = 24-h infusions, 10 patients, all grades
[9] = skin biopsies post- vs pre-treatment, 2-h infusions

## CCc1cnn2c(NCc3ccc[n+]([O-])c3)cc(N3CCCC[C@H]3CCO)nc12 [dinaciclib, Dinaciclib]
Advanced malignancies
  patients with stable disease for at least six treatment cycles: eight
[1]; one of gram-negative sepsis (29.6 mg m^−2, part 1), others related to progressive disease
  deaths before study treatment was discontinued: Eight
[1]; part 1
  SAE bacterial sepsis: 2 (6%) n (%)
  SAE febrile neutropenia: 2 (6%) n (%)
  SAE hyperbilirubinemia: 3 (8%) n (%)
  SAE hypotension: 3 (8%) n (%)
  SAE increased AST: 2 (6%) n (%)
  SAE neutropenia: 4 (11%) n (%)
[1]; part 2
  SAE febrile neutropenia: 2 (8%) n (%)
  SAE hypotension: 3 (12%) n (%)
  SAE neutropenia: 2 (8%) n (%)
[1]; part 2 (8- and 24-h infusions)
  patients with serious AEs (SAEs): 10 (38%) n (%)
[1]; [3]
  Diarrhoea: 8 (53%) n (%)
  Fatigue: 9 (60%) n (%)
  Nausea: 12 (80%) n (%)
  Neutropenia: 9 (60%) n (%)
  Vomiting: 11 (73%) n (%)
[1]; 2-h infusion n=35, all grades
  Abdominal pain: 2 (6) n (%)
  Alopecia: 4 (11) n (%)
  Anaemia: 4 (11) n (%)
  Decreased appetite: 5 (14) n (%)
  Dehydration: 3 (9) n (%)
  Diarrhoea: 16 (46%) n (%) and 16 (46) n (%)
  Dizziness: 3 (9) n (%)
  Fatigue: 13 (37%) n (%) and 13 (37) n (%)
  Febrile neutropenia: 2 (6) n (%)
  Headache: 4 (11) n (%)
  Hyperbilirubinemia: 3 (9) n (%)
  Hyperglycaemia: 1 (3) n (%)
  Hyperuricemia: 2 (6) n (%)
  Hypotension: 3 (9) n (%)
  Increased ALT: 4 (11) n (%)
  Increased AST: 6 (17) n (%)
  Increased alkaline phosphatase: 1 (3) n (%)
  Leukopenia: 8 (23) n (%)
  Nausea: 23 (66%) n (%) and 23 (66) n (%)
  Neutropenia: 18 (51%) n (%) and 18 (51) n (%)
  Pancytopenia: 1 (3) n (%)
  Thrombocytopenia: 1 (3) n (%)
  Vomiting: 23 (66%) n (%) and 23 (66) n (%)
[1]; 2-h infusion n=35, grade 3–4
  Abdominal pain: 0 n (%)
  Alopecia: 0 n (%)
  Anaemia: 0 n (%)
  Decreased appetite: 0 n (%)
  Dehydration: 1 (3) n (%)
  Diarrhoea: 0 n (%)
  Dizziness: 0 n (%)
  Fatigue: 0 n (%)
  Febrile neutropenia: 2 (6%) n (%) and 2 (6) n (%)
  Headache: 0 n (%)
  Hyperbilirubinemia: 0 n (%)
  Hyperglycaemia: 1 (3) n (%)
  Hyperuricemia: 2 (6%) n (%) and 2 (6) n (%)
  Hypotension: 1 (3) n (%)
  Increased ALT: 2 (6%) n (%) and 2 (6) n (%)
  Increased AST: 3 (9%) n (%) and 3 (9) n (%)
  Increased alkaline phosphatase: 1 (3) n (%)
  Leukopenia: 6 (17%) n (%) and 6 (17) n (%)
  Nausea: 0 n (%)
  Neutropenia: 16 (46%) n (%) and 16 (46) n (%)
  Pancytopenia: 1 (3) n (%)
  Thrombocytopenia: 1 (3) n (%)
  Vomiting: 1 (3) n (%)
[1]; [4]
  Abdominal pain: 1 (4) n (%)
  Alopecia: 2 (8) n (%)
  Anaemia: 3 (12) n (%)
  Bacterial sepsis: 1 (4) n (%)
  Decreased appetite: 2 (8) n (%)
  Dehydration: 2 (8) n (%)
  Diarrhoea: 7 (27) n (%)
  Dizziness: 2 (8) n (%)
  Fatigue: 10 (38) n (%)
  Febrile neutropenia: 2 (8) n (%)
  Headache: 0 n (%)
  Hyperbilirubinemia: 1 (4) n (%)
  Hyperglycaemia: 0 n (%)
  Hyperuricemia: 0 n (%)
  Hypotension: 5 (19) n (%)
  Increased ALT: 1 (4) n (%)
  Increased AST: 2 (8) n (%)
  Increased alkaline phosphatase: 3 (12) n (%)
  Leukopenia: 0 n (%)
  Nausea: 9 (35) n (%)
  Neutropenia: 7 (27) n (%)
  Pancytopenia: 0 n (%)
  Thrombocytopenia: 1 (4) n (%)
  Vomiting: 7 (27) n (%)
[1]; [5]
  Abdominal pain: 1 (4) n (%)
  Alopecia: 0 n (%)
  Anaemia: 0 n (%)
  Bacterial sepsis: 1 (4) n (%)
  Decreased appetite: 0 n (%)
  Dehydration: 0 n (%)
  Diarrhoea: 0 n (%)
  Dizziness: 0 n (%)
  Fatigue: 2 (8) n (%)
  Febrile neutropenia: 2 (8) n (%)
  Headache: 0 n (%)
  Hyperbilirubinemia: 1 (4) n (%)
  Hyperglycaemia: 0 n (%)
  Hyperuricemia: 0 n (%)
  Hypotension: 2 (8) n (%)
  Increased ALT: 0 n (%)
  Increased AST: 1 (4) n (%)
  Increased alkaline phosphatase: 2 (8) n (%)
  Leukopenia: 0 n (%)
  Nausea: 0 n (%)
  Neutropenia: 6 (23) n (%)
  Pancytopenia: 0 n (%)
  Thrombocytopenia: 0 n (%)
  Vomiting: 0 n (%)
[1]; [6]
  Diarrhoea: 7 (44%) n (%)
  Fatigue: 8 (50%) n (%)
  Nausea: 7 (44%) n (%)
  Neutropenia: 7 (44%) n (%)
  Vomiting: 6 (38%) n (%)
[1]; [7]
  Febrile neutropenia: 2 (13%) n (%)
  Hypotension: 2 (13%) n (%)
  Neutropenia: 6 (38%) n (%)
[1]; [8]
  Fatigue: 2 (20%) n (%)
  Increased AST: 2 (20%) n (%)
  Increased alkaline phosphatase: 2 (20%) n (%)
  Nausea: 2 (20%) n (%)
[1]; 24-h infusions, 10 patients, grade 3 or 4
  Fatigue: 2 (20%) n (%)
[2]; [9]
  cyclin D1 levels: decreased
  p27^Kip1 levels: relatively stable
  p53 levels: increased
[2]; skin biopsies post-treatment
  Ki-67 staining: no substantial reduction
[2]; skin biopsies, 8-h infusions
  degree of changes of Rb/CDK markers: overall similar to that observed after 2-h infusions
CDK12
  CDK12 inhibition: CDK12 inhibition by dinaciclib has also been demonstrated
